Laboratory results taken from patent US20240199640A1, “NEGATIVE ALLOSTERIC MODULATORS OF METABOTROPIC GLUTAMATE RECEPTOR 2” (priority 2021, published 2024).
“And” between values parts separate entries of the source, which are not always exact repeats. Equal entries are not always repeated.

Key:
human mGlu2 = molecular target: T1, human mGlu2 (Homo sapiens, UniProt Q14416); test: mGlu GIRK cell-based thallium flux assay, human mGlu2; settings: HEK-293 cells co-expressing human mGlu2 and GIRK; EC80 glutamate; Tl flux
T1 construct: expressed in transfected cells; host or cells: HEK-293
Protocol: (§1) The day before the assay, GIRK cells co-expressing human mGlu3, human or rat mGlu2, as described above, were plated in black-walled, clear-bottomed, amine-coated 384-well plates at a density of 15,000 cells/20 μL/well in the assay medium (glutamine-depleted basal DMEM supplemented with 10% dialyzed FBS, 20 mM HEPES, 1 mM sodium pyruvate). Cells were incubated at 37° C. in the presence of 5% CO2. […] Cells were washed with assay buffer using a microplate washer to remove the medium, resulting in 20 μL of buffer remaining in each well. Immediately, 20 μL of 2× Thallos dye solution was added to cells, and incubated for one hour at 25° C. During the cell dye loading incubation period, a 10-point concentration serial dilution of compound was created from a 10 mM DMSO compound stock by performing a 1:3 serial dilution in DMSO using the Bravo liquid handler. The 2× compound plate was generated by transferring 0.24 μL of the diluted compound in each well to a daughter plate using an Echo acoustic liquid handler.
(§2) After dye-loading, cell plates were washed with assay buffer to remove excess extracellular dye using a microplate washer, resulting in 20 μL of buffer remaining in each well. After a ten-minute equilibration period, cell, compound and agonist plates were loaded into a Hamamatsu μCell kinetic imaging plate reader equipped with liquid handler to monitor fluorescence changes at 480 nm excitation and 540 nm emission settings. Briefly, after collection of baseline fluorescence, 20 μL of compound was added and incubated for two minutes and twenty seconds. This is immediately followed by adding 10 μL of glutamate-thallium buffer to the wells containing compound. The fluorescent signal was monitored an additional 2.5 minutes after the glutamate addition. Multiple reference wells containing no compound received either no glutamate (for a baseline reference), […] glutamate, or ECmax glutamate (for normalization to maximum response). Fluorescence was measured throughout the experiment at a frequency of 1 measurement per every 2 seconds before the glutamate addition and a frequency of 1 measurement per every 1 second after the glutamate addition. Each compound concentration series occurred one time in each plate, and replicates from two or three plates were used in each experimental run. Thallium solutions were handled and disposed of according to guidelines from the Vanderbilt University Chemical Safety department.
(§3) Data were normalized using a static ratio function (F/F0) by dividing every fluorescent measurement by the initial fluorescent value for the corresponding well. The increase in signal resulting from the glutamate/thallium addition of the second add was measured by determining the slope from 3 seconds to 13 seconds after the addition. The average of all baseline slopes (no compound, no glutamate) was determined and this value was subtracted from all other slope values. The average of all ECmax slopes was determined and this value was used to normalize the baseline-corrected slopes to a percent max value (% Emax). The % Emax values for each compound series were plotted versus the log of the concentration and fit to a 4-parameter logistical equation with no fixed parameters.
(§4) Potency is reported as the IC50 resulting from the curve fit.

human mGlu3 = molecular target: T2, human mGlu3 (Homo sapiens, UniProt Q14832); test: mGlu GIRK cell-based thallium flux assay, human mGlu3; settings: HEK-293 cells co-expressing human mGlu3 and GIRK; EC80 glutamate; Tl flux
T2 construct: expressed in transfected cells; host or cells: HEK-293
Protocol: Human embryonic kidney (HEK-293) cell lines stably co-expressing human or rat mGlu2 and G protein-coupled inwardly rectifying potassium (GIRK) channels, or human mGlu3 and GIRK, were used for in vitro evaluation of compound activity in thallium flux assay using a fluorescent thallium indicator dye.
The day before the assay, GIRK cells co-expressing human mGlu3, human or rat mGlu2, as described above, were plated in black-walled, clear-bottomed, amine-coated 384-well plates at a density of 15,000 cells/20 μL/well in the assay medium (glutamine-depleted basal DMEM supplemented with 10% dialyzed FBS, 20 mM HEPES, 1 mM sodium pyruvate). Cells were incubated at 37° C. in the presence of 5% CO2. The next day, assay buffer (Hanks balanced salt solution, 20 mM HEPES, 4.16 mM sodium bicarbonate, pH 7.2) was prepared to dilute compounds and Thallos AM fluorescent dye solution. The 2× Thallos dye solution (final concentration 0.34 μM to the cells) was prepared by mixing the dye stock (2.97 mM in DMSO) to 1:1 with 10% pluronic acid before adding to the assay buffer. Cells were washed with assay buffer using a microplate washer to remove the medium, resulting in 20 μL of buffer remaining in each well. Immediately, 20 μL of 2× Thallos dye solution was added to cells, and incubated for one hour at 25° C. During the cell dye loading incubation period, a 10-point concentration serial dilution of compound was created from a 10 mM DMSO compound stock by performing a 1:3 serial dilution in DMSO using the Bravo liquid handler. The 2× compound plate was generated by transferring 0.24 μL of the diluted compound in each well to a daughter plate using an Echo acoustic liquid handler. This is further diluted in 40 μL assay buffer, resulting in a range from 30 μM to 1.5 nM final concentration in the assay. The agonist plate (5×) was prepared to include EC80 glutamate concentration (a concentration to elicit 80% of a maximally effective glutamate concentration) in thallium buffer (125 mM […], 1 mM magnesium sulfate, 1.8 mM calcium sulfate, 5 mM glucose, 10 mM HEPES, pH 7.2, 12.5 mM thallium sulfate).
as §2
Data were normalized using a static ratio function (F/F0) by dividing every fluorescent measurement by the initial fluorescent value for the corresponding well. The increase in signal resulting from the glutamate/thallium addition of the second add was measured by determining the slope from 3 seconds to 13 seconds after the addition. […]

rat mGlu2 = molecular target: T3, rat mGlu2 (Rattus norvegicus, UniProt P31421); test: mGlu GIRK cell-based thallium flux assay, rat mGlu2; settings: rat mGlu2 GIRK IC50 (nM), HEK-293 cells co-expressing rat mGlu2 and GIRK; EC80 glutamate; Tl flux
T3 construct: expressed in transfected cells; host or cells: HEK-293
Protocol: as §1, §2, §3, §4

T3 sequence (P31421 19-872): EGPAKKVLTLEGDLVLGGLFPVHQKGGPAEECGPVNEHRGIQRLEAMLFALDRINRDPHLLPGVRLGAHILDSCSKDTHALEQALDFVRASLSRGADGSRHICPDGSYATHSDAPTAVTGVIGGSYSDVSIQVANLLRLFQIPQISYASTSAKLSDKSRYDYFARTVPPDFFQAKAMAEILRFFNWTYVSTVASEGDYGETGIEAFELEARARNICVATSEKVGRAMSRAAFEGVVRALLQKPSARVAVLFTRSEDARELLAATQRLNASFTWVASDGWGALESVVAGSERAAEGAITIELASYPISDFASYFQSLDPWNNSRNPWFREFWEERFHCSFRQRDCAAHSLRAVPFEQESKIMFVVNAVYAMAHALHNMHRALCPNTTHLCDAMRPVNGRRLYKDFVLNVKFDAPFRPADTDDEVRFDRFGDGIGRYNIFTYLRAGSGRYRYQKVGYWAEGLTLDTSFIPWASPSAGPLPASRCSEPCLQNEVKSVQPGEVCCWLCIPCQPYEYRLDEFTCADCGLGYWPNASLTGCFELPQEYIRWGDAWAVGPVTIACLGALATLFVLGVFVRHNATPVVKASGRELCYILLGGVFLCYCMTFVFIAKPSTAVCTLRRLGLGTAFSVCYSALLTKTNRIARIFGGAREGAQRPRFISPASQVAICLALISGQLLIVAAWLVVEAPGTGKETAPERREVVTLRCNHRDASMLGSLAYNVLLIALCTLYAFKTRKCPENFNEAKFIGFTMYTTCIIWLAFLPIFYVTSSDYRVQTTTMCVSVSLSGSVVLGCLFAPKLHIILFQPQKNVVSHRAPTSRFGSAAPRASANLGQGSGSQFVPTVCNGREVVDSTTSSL
T1 sequence (Q14416 19-872): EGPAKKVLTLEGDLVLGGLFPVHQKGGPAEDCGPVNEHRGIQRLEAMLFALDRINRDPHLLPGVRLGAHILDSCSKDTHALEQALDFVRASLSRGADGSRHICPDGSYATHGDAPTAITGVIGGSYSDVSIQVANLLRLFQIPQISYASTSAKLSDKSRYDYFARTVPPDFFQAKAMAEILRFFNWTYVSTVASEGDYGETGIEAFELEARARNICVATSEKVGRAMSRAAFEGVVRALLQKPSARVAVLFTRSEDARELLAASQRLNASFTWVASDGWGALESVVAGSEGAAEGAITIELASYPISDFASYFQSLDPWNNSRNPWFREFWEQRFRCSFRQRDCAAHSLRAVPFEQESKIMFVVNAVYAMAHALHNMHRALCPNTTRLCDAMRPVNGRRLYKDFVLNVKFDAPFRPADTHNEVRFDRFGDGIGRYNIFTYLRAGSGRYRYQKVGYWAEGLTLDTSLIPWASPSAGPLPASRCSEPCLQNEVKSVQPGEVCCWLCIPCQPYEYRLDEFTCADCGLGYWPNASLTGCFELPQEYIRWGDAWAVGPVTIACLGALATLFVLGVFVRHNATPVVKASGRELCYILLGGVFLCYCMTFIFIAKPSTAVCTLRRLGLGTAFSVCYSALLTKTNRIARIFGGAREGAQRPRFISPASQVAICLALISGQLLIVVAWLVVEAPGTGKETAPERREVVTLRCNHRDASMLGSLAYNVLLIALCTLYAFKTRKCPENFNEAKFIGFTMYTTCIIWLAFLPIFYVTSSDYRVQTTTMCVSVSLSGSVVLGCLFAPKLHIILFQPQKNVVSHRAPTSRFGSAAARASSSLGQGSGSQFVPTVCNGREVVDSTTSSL
T2 sequence (Q14832 23-879): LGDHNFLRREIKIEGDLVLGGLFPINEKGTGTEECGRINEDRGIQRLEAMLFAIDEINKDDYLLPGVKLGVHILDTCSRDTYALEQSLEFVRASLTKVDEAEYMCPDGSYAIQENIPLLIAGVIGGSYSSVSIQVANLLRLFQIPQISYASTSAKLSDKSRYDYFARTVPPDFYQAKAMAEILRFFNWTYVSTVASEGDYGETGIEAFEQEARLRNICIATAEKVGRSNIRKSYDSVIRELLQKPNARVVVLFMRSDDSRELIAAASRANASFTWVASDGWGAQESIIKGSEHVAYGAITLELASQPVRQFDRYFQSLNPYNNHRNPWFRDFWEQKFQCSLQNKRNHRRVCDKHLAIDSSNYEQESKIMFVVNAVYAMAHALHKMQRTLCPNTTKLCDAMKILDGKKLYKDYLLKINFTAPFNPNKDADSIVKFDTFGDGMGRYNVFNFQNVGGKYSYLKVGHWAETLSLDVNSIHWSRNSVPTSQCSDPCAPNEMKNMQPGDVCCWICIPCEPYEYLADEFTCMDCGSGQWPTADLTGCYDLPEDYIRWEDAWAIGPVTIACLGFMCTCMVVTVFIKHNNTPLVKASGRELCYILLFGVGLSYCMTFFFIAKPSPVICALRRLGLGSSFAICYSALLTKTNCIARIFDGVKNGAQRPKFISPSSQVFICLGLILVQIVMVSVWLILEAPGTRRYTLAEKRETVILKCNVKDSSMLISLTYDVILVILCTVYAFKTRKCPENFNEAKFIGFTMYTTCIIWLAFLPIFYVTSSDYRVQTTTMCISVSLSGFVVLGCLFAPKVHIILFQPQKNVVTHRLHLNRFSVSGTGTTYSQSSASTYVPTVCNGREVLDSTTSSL

In the case of `O=C1NCc2cc(OCc3ccccc3F)c(-c3ccc(F)cc3)cc21` [Compound 8, 5-((2-fluorobenzyl)oxy)-6-(4-fluorophenyl)isoindolin-1-one], the IC50 (human mGlu2) is reported as 3200 nM and the “Human mGlu3 GIRK IC50 (nM)” value (human mGlu3) is reported as “Inactive”.

`Cn1ccc(COc2cc3c(cc2-c2ccc(F)cc2)C(=O)NC3)n1` [Compound 1, 6-(4-fluorophenyl)-5-((1-methyl-1H-pyrazol-3-yl)methoxy)isoindolin-1-one] was tested, and the IC50 (human mGlu2) was 594 nM and the “Human mGlu3 GIRK IC50 (nM)” value (human mGlu3) was “Inactive”.

For `CC(C)n1ccc(COc2cc3c(cc2-c2ccc(F)cc2)C(=O)NC3)n1` [Compound 4, 6-(4-fluorophenyl)-5-((1-isopropyl-1H-pyrazol-3-yl)methoxy)isoindolin-1-one], the IC50 (human mGlu2) was 261 nM and the “Human mGlu3 GIRK IC50 (nM)” value (human mGlu3) was “Inactive”.

In the case of `O=C1NCc2cc(OCc3ccncc3)c(-c3ccc(F)cc3)cc21` [Compound 6, 6-(4-fluorophenyl)-5-(pyridin-4-ylmethoxy)isoindolin-1-one], the IC50 (human mGlu2) is reported as 237 nM and the “Human mGlu3 GIRK IC50 (nM)” value (human mGlu3) is reported as “Inactive”.

`Cc1nc(COc2cc3c(cc2-c2ccccc2F)C(=O)NC3)cs1` [Compound 16, 6-(2-fluorophenyl)-5-((2-methylthiazol-4-yl)methoxy)isoindolin-1-one] was tested, and the IC50 (human mGlu2) was 357 nM and the “Human mGlu3 GIRK IC50 (nM)” value (human mGlu3) was “Inactive”.

With `COc1cccc(COc2cc3c(cc2-c2ccc(F)cc2)C(=O)NC3)c1` [Compound 7, 6-(4-fluorophenyl)-5-((3-methoxybenzyl)oxy)isoindolin-1-one] the IC50 (human mGlu2) was 8290 nM and the “Human mGlu3 GIRK IC50 (nM)” value (human mGlu3) was “Inactive”.

`Cc1nc(COc2cc3c(cc2-c2ccccc2C#N)C(=O)NC3)cs1` [Compound 20, 2-(6-((2-methylthiazol-4-yl)methoxy)-3-oxoisoindolin-5-yl)benzonitrile] was tested, and the IC50 (human mGlu2) was 189 nM and the “Human mGlu3 GIRK IC50 (nM)” value (human mGlu3) was “Inactive”.

In the case of `COc1ccc(-c2cc3c(cc2OCc2csc(C)n2)CNC3=O)cc1` [Compound 19, 6-(4-methoxyphenyl)-5-((2-methylthiazol-4-yl)methoxy)isoindolin-1-one], the IC50 (human mGlu2) is reported as 119 nM and the “Human mGlu3 GIRK IC50 (nM)” value (human mGlu3) is reported as “Inactive”.

`Cn1ccc(COc2cc3c(cc2-c2ccccc2F)C(=O)NC3)n1` [Compound 13, 6-(2-fluorophenyl)-5-((1-methyl-1H-pyrazol-3-yl)methoxy)isoindolin-1-one] was tested, and the IC50 (human mGlu2) was 214 nM and the “Human mGlu3 GIRK IC50 (nM)” value (human mGlu3) was “Inactive”.

In the case of `O=C1NCc2cc(OCc3cc4n(n3)CCCO4)c(-c3ccc(F)cc3)cc21` [Compound 10, 5-((6,7-dihydro-5H-pyrazolo[5,1-b][1,3]oxazin-2-yl)methoxy)-6-(4-fluorophenyl)isoindolin-1-one], the IC50 (human mGlu2) is reported as 423 nM and the “Human mGlu3 GIRK IC50 (nM)” value (human mGlu3) is reported as “Inactive”.

For `O=C1NCc2cc(OC3CN(C(=O)c4ccno4)C3)c(-c3ccc(F)cc3)cc21` [Compound 69, 6-(4-fluorophenyl)-5-((1-(isoxazole-5-carbonyl)azetidin-3-yl)oxy)isoindolin-1-one], the IC50 (rat mGlu2) was > 10000 nM.

`Cc1csc(C(C)Oc2cc3c(cc2-c2ccc(F)cc2)C(=O)NC3)n1` (centres unmarked) [Compound 29, 6-(4-fluorophenyl)-5-(1-(4-methylthiazol-2-yl)ethoxy)isoindolin-1-one] was tested, and the IC50 (rat mGlu2) was 1690 nM.

With `Cn1ccc(COc2cc3c(cc2-c2cc(F)nc(F)c2)C(=O)NC3)n1` [Compound 41, 6-(2,6-difluoropyridin-4-yl)-5-((1-methyl-1H-pyrazol-3-yl)methoxy)isoindolin-1-one] the IC50 (rat mGlu2) was > 10000 nM.

With `Cn1ccc(N2CC(Oc3cc4c(cc3-c3ccc(F)cc3)C(=O)NC4)C2)n1` [Compound 71, 6-(4-fluorophenyl)-5-((1-(1-methyl-1H-pyrazol-3-yl)azetidin-3-yl)oxy)isoindolin-1-one] the IC50 (rat mGlu2) was 1960 nM.

For `Cn1ccc(COc2cc3c(cc2-c2ccc4c(c2)OCCO4)C(=O)NC3)n1` [Compound 56, 6-(2,3-dihydrobenzo[b][1,4]dioxin-6-yl)-5-((1-methyl-1H-pyrazol-3-yl)methoxy)isoindolin-1-one], the IC50 (rat mGlu2) was 2930 nM and 7540 nM.

For `Cn1cc(CN2CC(Oc3cc4c(cc3-c3ccc(F)cc3)C(=O)NC4)C2)cn1` [Compound 78, 6-(4-fluorophenyl)-5-((1-((1-methyl-1H-pyrazol-4-yl)methyl)azetidin-3-yl)oxy)isoindolin-1-one], the IC50 (rat mGlu2) was > 10000 nM.

For `Cn1cc(OCc2cc3c(cc2-c2ccc(F)cc2)C(=O)NC3)cn1` [Compound 63, 6-(4-fluorophenyl)-5-(((1-methyl-1H-pyrazol-4-yl)oxy)methyl)isoindolin-1-one], the IC50 (rat mGlu2) was 1190 nM and 1570 nM.

`Cn1ccc(-c2cc3c(cc2OCc2ccn(C)n2)CNC3=O)c1` [Compound 47, 5-((1-methyl-1H-pyrazol-3-yl)methoxy)-6-(1-methyl-1H-pyrrol-3-yl)isoindolin-1-one] was tested, and the IC50 (rat mGlu2) was > 10000 nM.

For `Cc1cc(CN2CC(Oc3cc4c(cc3-c3ccc(F)cc3)C(=O)NC4)C2)no1` [Compound 80, 6-(4-fluorophenyl)-5-((1-((5-methylisoxazol-3-yl)methyl)azetidin-3-yl)oxy)isoindolin-1-one], the IC50 (rat mGlu2) was 1990 nM.

With `Cn1ccc(COc2cc3c(cc2-c2ccc4c(c2)OCO4)C(=O)NC3)n1` [Compound 55, 6-(benzo[d][1,3]dioxol-5-yl)-5-((1-methyl-1H-pyrazol-3-yl)methoxy)isoindolin-1-one] the IC50 (rat mGlu2) was 1190 nM and 362 nM.

Molecule `Cc1nc(CN2CC(Oc3cc4c(cc3-c3ccc(F)cc3)C(=O)NC4)C2)cs1` [Compound 79, 6-(4-fluorophenyl)-5-((1-((2-methylthiazol-4-yl)methyl)azetidin-3-yl)oxy)isoindolin-1-one] has an IC50 (rat mGlu2) of 2540 nM.

`Cn1ccc(COc2cc3c(cc2-c2cnn(C(F)F)c2)C(=O)NC3)n1` [Compound 50, 6-(1-(difluoromethyl)-1H-pyrazol-4-yl)-5-((1-methyl-1H-pyrazol-3-yl)methoxy)isoindolin-1-one] showed an IC50 (rat mGlu2) of 2360 nM.

With `Cc1csc(C)c1S(=O)(=O)N1CC(Oc2cc3c(cc2-c2ccc(F)cc2)C(=O)NC3)C1` [Compound 76, 5-((1-((2,4-dimethylthiophen-3-yl)sulfonyl)azetidin-3-yl)oxy)-6-(4-fluorophenyl)isoindolin-1-one] the IC50 (rat mGlu2) was 1000 nM.

`Cc1c(-c2cc3c(cc2OCc2ccn(C)n2)CNC3=O)cc(C#N)n1C` [Compound 49, 1,5-dimethyl-4-(6-((1-methyl-1H-pyrazol-3-yl)methoxy)-3-oxoisoindolin-5-yl)-1H-pyrrole-2-carbonitrile] was tested, and the IC50 (rat mGlu2) was > 10000 nM.

In the case of `Cn1ccc(OCc2cc3c(cc2-c2ccc(F)cc2)C(=O)NC3)n1` [Compound 64, 6-(4-fluorophenyl)-5-(((1-methyl-1H-pyrazol-3-yl)oxy)methyl)isoindolin-1-one], the IC50 (rat mGlu2) is reported as 2930 nM and 582 nM.
